Assay results published in patent publication US20050038007A1, “Dosage forms of cholesteryl ester transfer protein inhibitors and HMG-CoA reductase inhibitors” (Pfizer Inc, priority 2003, published 2005).

Assay: Aqueous solubility of torcetrapib
Assay type: physicochemical
Conditions: water (aqueous), at about 22° C.
Method: The CETP inhibitor may be any compound capable of inhibiting the cholesteryl ester transfer protein. […] Many CETP inhibitors have even lower solubilities (some even less than 0.1 μg/mL), and require dramatic concentration enhancement to be sufficiently bioavailable upon oral dosing for effective plasma concentrations to be reached at practical doses.
CETP inhibitors, in particular torcetrapib, and methods for preparing such compounds are disclosed in detail in U.S. Pat. Nos. 6,197,786 and 6,313,142, in PCT Application Nos. WO 01/40190A1, WO 02/088085A2, and WO 02/088069A2, the disclosures of which are herein incorporated by reference. Torcetrapib has an unusually low solubility in aqueous environments such as the lumenal fluid of the human GI tract. The aqueous solubility of torcetrapib is less than about 0.04 μg/ml. Torcetrapib must be presented to the GI tract in a solubility-improved form in order to achieve a sufficient drug concentration in the GI tract in order to achieve sufficient absorption into the blood to elicit the desired therapeutic effect.

solubility: < 0.04 µg/mL
Structure (SMILES): CCOC(=O)N1c2ccc(C(F)(F)F)cc2[C@@H](N(Cc2cc(C(F)(F)F)cc(C(F)(F)F)c2)C(=O)OC)C[C@H]1CC [Torcetrapib, [2R,4S]-4-[(3,5-bis-trifluoromethyl-benzyl)-methoxycarbonyl-amino]-2-ethyl-6-trifluoromethyl-3,4-dihydro-2H-quinoline-1-carboxylic acid ethyl ester]
